The text below walks through data of patent US7319093B2, “Antidiabetic 2-substituted-5′-O-(1-Boranotriphosphate) adenosine derivatives” (Bar-Ilan University, priority 2001, dated 2008).

Several values for one entry are separate records, joined by “and”; a condition that tells them apart may be missing. Equal entries are not always repeated. Where two headings read alike, the source gives them in different places.

In assay [1] the test system is isolated and perfused rat pancreas. The following applies: cited from earlier work.
The next assay deals with dog. The following applies: cited from earlier work.
In another assay the test system is fed rats. The following applies: cited from earlier work.
In assay [2] the test system is Normal (non diabetic) Wistar rats. The assay can be described thus: Effect on glycemia in vivo, glucose tolerance test. Set-up: species or system rat. The settings on record: in percent of baseline values, single oral dose 0.2 mg/kg, glucose 2 g/kg i.p., 0-60 min, individual animals 1-4. On the procedure: Normal (non diabetic) Wistar rats were treated with a single oral dose of VK 38A (0.2 mg/kg) or placebo (vehicle) administered just before a glucose tolerance test, in a cross-over experimental design with a 7-day wash-out period. Glucose (2 g/kg) was administered by intraperitoneal injection. Blood samples were taken before and 10, 20, 30, 60 minutes after glucose load to measure glycemia. The area under the curve of plasma glucose concentrations (in percent of baseline values) was calculated. Results in four animals are given in Table 2 (baseline glucose concentrations were 1.26±0.02 and 1.26±0.04 g/L in control and treated animals, respectively).

The next assay deals with rat isolated pancreas. The assay can be described thus: Glucose-dependence of the insulin response in the isolated rat pancreas. The following applies: 20 nmol/L during 20 minutes, mean±sem. The protocol:
The rat isolated pancreas is perfused in vitro with a physiological medium containing different concentrations of glucose. VK 38A is added during 20 minutes at 20 nmol/L. Insulin response is determined by the area under the concentration-time curve during VK 38A administration and is expressed as mean±sem.

For assay [3], the system named is rat isolated and perfused pancreas. The assay can be described thus: Pancreatic flow rate (vascular resistance) in isolated perfused rat pancreas. The following applies: for change in pancreatic flow rate: baseline 2.5 mL/min at time 45 min = 100%. The protocol: (§1) The effects of the compounds on insulin secretion and vascular resistance in the rat isolated and perfused pancreas were evaluated in the presence of a slightly stimulating glucose concentration (8.3 mmol/L).
(§2) Experiments were performed in vitro in isolated perfused pancreas from male Wistar albino rats fed ad libitum and weighing 300-350 g. The pancreas was completely isolated according to a technique previously described (Loubatières et al., Diabetologia, 1969, 5, 1-10) and perfused through its own arterial system with a Krebs-Ringer bicarbonate buffer containing 8.3 mmol/L glucose and 2 g/L bovine serum albumin. A mixture of O2 (95%) and CO2 (5%) was bubbled through this medium at atmospheric pressure. The pH of the solution was 7.35. The preparation was maintained at 37.5° C. Each organ was perfused at a constant pressure (40-50 cm water) selected so as to produce a flow rate of 2.5 ml/min at the start of the experiment; in these conditions, any change in the flow rate reflects a change in vascular resistance (Hillaire-Buys et al., Eur. J. Pharmacol., 1991, 199, 309-314). A 30 min adaptation period was allowed before the first sample was taken for insulin assay. A sample was taken 15 min later, at time 45 min. Then, an infusion of ATP analogues was performed during 30 min. The pancreatic flow rate was recorded and insulin was measured in the effluent fractions.
(§3) Results are expressed as means±standard error of the mean (SEM). For the kinetics of insulin secretion and vascular flow rate, the results are expressed as changes in relation to the value at time 45 min taken as 100%. For the determination of the concentration-response relationship, the mean insulin output rate was calculated as follows: the area under the curve for the drug infusion period divided by the number of minutes (AUC/30).

The test system is the same in assay [4]. The assay can be described thus: Insulin secretion from isolated perfused rat pancreas (8.3 mmol/L glucose). On the procedure: as §1, §2
Insulin was assayed by the radioimmunological method of Herbert et al. (J. Clin. Endocrinol. Metab., 1965, 25, 1375-1384) using a purified rat insulin as standard (Linco Research, St. Charles, Mo., USA) and anti-insulin serum (ICN Biochemicals, Miles, Puteaux, France). The assay sensitivity was 0.1 ng/ml. Insulin output from perfused pancreas is expressed as ng/min and was determined by multiplying the hormone concentration in the effluent fraction by the flow rate.
as §3

The mark [5] stands for this setting: injected directly to the pancreatico-duodenal artery.
[6] abbreviates: conscious dogs, oral administration.

As for `CCCCCCSc1nc(N)c2ncn([C@H]3O[C@@H](COP(O)(=S)OP(=O)(O)OP(=O)(O)O)[C@H](O)[C@@H]3O)c2n1` (stereo partly drawn) [2-hexylthio-ATP-α-S], the “enhancement of potency relative to ATP” value in assay [1] (insulin secretion) is 100 fold. In assay [1] (nM concentration range), the “increase in glucose-induced insulin secretion” value was “up to 500%”.
With `CSc1nc(N)c2ncn([C@@H]3O[C@H](COP(=O)(O)OP(=O)(O)OP(=O)(O)O)[C@@H](O)[C@H]3O)c2n1` [2-methylthio-ATP], in the assay with dog (setting [5]), the glycemia entry was “slightly decreased glycemia” and the insulin release entry is recorded as “stimulated insulin release”.
In the case of `Nc1ncnc2c1ncn2[C@@H]1O[C@H](COP(=O)(O)OP(O)(O)=S)[C@@H](O)[C@H]1O` [ADP-β-S, Adenosine 5′-O-(2-thio)diphosphate], in the assay with dog (setting [6]), the glycemia result is listed as “reducing glycemia” and the insulinemia entry was “transiently increasing insulinemia”. Further, in the assay on fed rats, the Insulin response entry was “sustained insulin response” and the glycemia entry is given as “reduction of glycemia”.
With `BP(=O)(OC[C@H]1O[C@@H](n2cnc3c(N)nc(SC)nc32)[C@H](O)[C@@H]1O)OP(=O)(O)OP(=O)(O)O` (stereo partly shown) [VK 38A, 2-methylthioadenosine-5′-O-(1-boranotriphosphate)], the “AUC (VK38A-treated): area under the curve of plasma glucose concentrations” value in assay [2] is 158 and 201 and 134 and 176. For the same molecule, the Insulin response turned out to be 0.97 ± 0.03 ng/min with rat isolated pancreas (glucose 2.8 mmol/L), 2.68 ± 0.52 ng/min in the assay on rat isolated pancreas (glucose 5.0 mmol/L) and 33.12 ± 1.75 ng/min with rat isolated pancreas (glucose 8.3 mmol/L). Also, the “change in pancreatic flow rate” value is listed as −6±3% in assay [3] (0.5 μmol/L), −10±3% in assay [3] (1.5 μmol/L) and −8±6% in assay [3] (5.0 μmol/L). Besides, in assay [3] (till 150 nmol/L), the “vascular effects (pancreatic flow rate)” value was “no significant effect”. In addition, in assay [4], the “maximal effect on insulin secretion (AUC for 30 min in % per min)” value is “approximately 900%”. Moreover, the “transient monophasic insulin response” value in assay [4] (1.5 nmol/L, value at time 45 min taken as 100%) is listed as 230%. Moreover, the “concentration range of immediate and concentration-dependent insulin response” value in assay [4] (30 min infusion) fell in the range of 0.0015 to 5.0 µmol/L.
`BP(=O)(OC[C@H]1O[C@@H](n2cnc3c(N)nc(SC)nc32)[C@H](O)[C@@H]1O)OP(=O)(O)OP(=O)(O)O` (stereo partly shown) [VK 38B, 2-methylthioadenosine-5′-O-(1-boranotriphosphate)]: in assay [3] (from the concentration of 15 nmol/L), the “transient reduction in pancreatic flow rate (increase in vascular resistance)” value is given as −27±5%. Moreover, the “insulin response compared with VK 38A” value in assay [4] is “less potent than that induced by isomer A”.
As for `BP(=O)(OC[C@H]1O[C@@H](n2cnc3c(N)ncnc32)[C@H](O)[C@@H]1O)OP(=O)(O)OP(=O)(O)O` (stereo partly shown) [VK 39A, adenosine-5′-O-(1-boranotriphosphate)], the “change in pancreatic flow rate” value in assay [3] (0.5 μmol/L) is listed as “+7±3%”; in assay [3] (5.0 μmol/L), “+10±3%”. For the same molecule, the “insulin response compared with VK 38A” value in assay [4] was “clearly less potent than that of VK 38 A”.
Turning to `BP(=O)(OC[C@H]1O[C@@H](n2cnc3c(N)nc(Cl)nc32)[C@H](O)[C@@H]1O)OP(=O)(O)OP(=O)(O)O` (stereo partly shown) [VK 44A, 2-chloroadenosine-5′-O-(1-boranotriphosphate)], the “change in pancreatic flow rate” value is recorded as “+8±3%” in assay [3] (0.015 μmol/L), “+16±5%” in assay [3] (0.15 μmol/L) and “+12±5%” in assay [3] (1.5 μmol/L). For the same molecule, the “insulin response compared with VK 38A” value in assay [4] is “comparable to that of VK 38A”.
